What was measured:
[1] = tested on: TRABD protease; details: cited from earlier work; for function of TRABD protein: divalent metal ion complexing agent; for TRABD protease activity: early study, metal ions
[2] = molecular target: T1, TRABD2A protein (Homo sapiens, UniProt Q86V40); details: different view; metal ions; cited from earlier work
T1 sequence (Q86V40 22-480): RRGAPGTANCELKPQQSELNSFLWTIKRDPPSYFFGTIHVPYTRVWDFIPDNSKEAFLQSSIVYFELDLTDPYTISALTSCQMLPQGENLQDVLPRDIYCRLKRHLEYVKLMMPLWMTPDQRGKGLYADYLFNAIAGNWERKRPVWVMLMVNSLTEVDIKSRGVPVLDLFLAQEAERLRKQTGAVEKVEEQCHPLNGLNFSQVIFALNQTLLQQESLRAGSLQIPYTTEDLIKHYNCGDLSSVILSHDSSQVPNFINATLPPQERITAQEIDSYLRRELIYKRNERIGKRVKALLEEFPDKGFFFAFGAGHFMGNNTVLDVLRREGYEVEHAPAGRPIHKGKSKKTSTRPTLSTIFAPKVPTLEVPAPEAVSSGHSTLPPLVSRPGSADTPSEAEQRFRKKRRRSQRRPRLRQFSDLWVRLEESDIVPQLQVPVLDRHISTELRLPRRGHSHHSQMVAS

[3] = molecular target: T2, TRABD2A metalloprotease on CD8^+ T cells (Homo sapiens, UniProt Q86V40); experiment: Killing activity of CD8+ T cells on target cells after metal cofactor intervention of TRABD2A; type: cell-based; details: metal cations at different concentrations acting on CD8+ T cells; target cells CEM.T2 and MGC; FIG. 4A
T2 construct: action of metal ions Mn^2+, Co^2+ and Ni^2+ on TRABD2A metalloprotease on CD8^+ T cells; endogenous in cells
T2 sequence (Q86V40 22-480): T1 sequence (Q86V40 22-480)
Source text: Since TRABD2A is a metalloprotease and its activity is affected by metal ions, and the metal ion Mn^2+ having an accelerating effect on TRABD2A metalloprotease activity and metal ions Co^2+ and Ni^2+ having an inhibiting effect were examined. The effect of the TRABD2A protein on CD8^+ T cells was observed by the action of metal ions Mn^2+, Co^2+ and Ni^2+ on TRABD2A metalloprotease on CD8^+ T cells.

[4] = tested on: CD8^+ T cells and target cells; experiment: CCK8 and flow cytometry detection of toxic effect of metal cations; details: concentration of 20 μM
Source text: FIG. 4A show the effect on the target cell killing ability of CD8^+ T cells after metal cofactor intervention of TRABD2A; • A: detection of the killing activity of the CD8^+ T cells on target cells CEM.T2 when metal cations Co^2+, Ni^2+ and Mn^2+ at different concentrations act on CD8^+ T cells; • B: detection of the killing activity of the CD8^+ T cells on target cells MGC when metal cations Co^2+, Ni^2+ and Mn^2+ at different concentrations act on CD8^+ T cells; • C: CCK8 and flow cytometry detection of the toxic effect of metal cations Co^2+, Ni^2+ and Mn^2+ at different concentrations on target cells.

[5] = tested on: target cells; experiment: CCK8 and flow cytometry detection of toxic effect of Ni2+ on target cells; type: cell-based; details: concentration 20 μM
[6] = molecular target: T3, TRABD2B metalloprotease on CD8^+ T cells (Homo sapiens, UniProt A6NFA1); experiment: Killing activity of CD8+ T cells on target cells after metal cofactor intervention with TRABD2B; type: cell-based; details: Ni2+ at different concentrations; target cells CEM.T2; FIG. 4B
T3 construct: action of metal ion Ni^2+ upon TRABD2B metalloprotease on CD8^+ T cells; endogenous in cells
T3 sequence (A6NFA1 20-486): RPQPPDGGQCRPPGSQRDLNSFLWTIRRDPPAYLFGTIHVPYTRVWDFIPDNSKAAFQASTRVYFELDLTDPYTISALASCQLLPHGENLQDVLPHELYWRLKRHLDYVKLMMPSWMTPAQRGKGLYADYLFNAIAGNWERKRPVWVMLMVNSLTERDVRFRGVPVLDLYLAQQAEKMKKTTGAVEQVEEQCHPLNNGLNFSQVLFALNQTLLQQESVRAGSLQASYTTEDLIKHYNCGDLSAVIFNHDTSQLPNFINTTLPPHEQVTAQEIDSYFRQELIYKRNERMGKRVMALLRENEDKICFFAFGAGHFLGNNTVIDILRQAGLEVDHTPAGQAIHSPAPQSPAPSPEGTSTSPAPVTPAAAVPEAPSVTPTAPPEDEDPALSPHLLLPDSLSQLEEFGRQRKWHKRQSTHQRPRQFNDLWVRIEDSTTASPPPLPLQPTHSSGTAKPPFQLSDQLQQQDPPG
Source text: Since TRABD2B is a metalloprotease whose activity is affected by metal ions, metal ion Mn^2+ that promotes the TRABD2B metalloprotease activity was examined. The effect of the TRABD2B protein on CD8^+ T cells was observed by the action of metal ion Ni^2+ upon TRABD2B metalloprotease on CD8^+ T cells.

[7] = molecular target: TRABD2A protein (antigen) (UniProt Q86V40); experiment: ELISA; negative control; fit value beyond top concentration
[8] = molecular target: T1, TRABD2A protein; experiment: Binding of synthesized TRABD2A antibodies to antigen; details: detection with antigen; FIG. 6A
Source text: Three antibodies anti-TRABD2A-1 (amino acid sequences of heavy and light chains are set forth in SEQ ID NOs: 7 and 8, respectively), anti-TRABD2A-2 (amino acid sequences of heavy and light chains are set forth in SEQ ID NOs: 13 and 14, respectively) and negative control (amino acid sequences of heavy and light chains are set forth in SEQ ID NOs: 19 and 20, respectively) synthesized in Example 5-1 were used. […] After concentration of the antibodies, the protein concentrations were measure by A280, and the concentrations of anti-TRABD2A-1, anti-TRABD2A-2 and negative control were 0.92 mg/mL, 1.6 mg/mL and 2.98 mg/mL, respectively. The proteins were snap frozen in liquid nitrogen and stored at −80° C. for later use.

[9] = molecular target: T4, TRABD2A protein on CD8^+ T cells (Homo sapiens, UniProt Q86V40); experiment: Killing of target cells by CD8+ T cells after intervention with TRABD2A antibody; type: cell-based; details: antibody removed or unremoved after incubation; FIG. 7A
T4 construct: action of metal ions Mn^2+, Co^2+ and Ni^2+ on TRABD2A metalloprotease on CD8^+ T cells; endogenous in cells
T4 sequence (Q86V40 22-480): T1 sequence (Q86V40 22-480)
Experimental: Two modes were adopted for intervening with TRABD2A protein on CD8^+ T cells, and the difference of the two modes was that the CD8^+ T cells, after incubation with the antibody, kill the target cells with residual blocking antibody removed or unremoved.

[10] = molecular target: T5, TRABD2A protein (antigen) (UniProt Q86V40 22-480); experiment: ELISA
T5 chain: T1 sequence (Q86V40 22-480)

[11] = molecular target: T1, TRABD2A protein; experiment: Binding of anti-TRABD2A/2B bispecific antibody to antigen TRABD2A protein; details: detection with antigen; FIG. 6C
Experimental: (§1) The bispecific antibody (amino acid sequences of heavy and light chains are set forth in SEQ IN NOs: 29 and 30, respectively) and negative control (amino acid sequences of heavy and light chains are set forth in SEQ IN NOs: 33 and 24, respectively) antibody synthesized in Example 5-3 were used. […] After the antibodies were concentrated, the protein concentration of anti-TRABD2A/2B was 1.23 mg/mL and that of the negative control was 1.02 mg/mL, as measured by A280. The proteins were snap frozen in liquid nitrogen and stored at −80° C. for later use.

[12] = tested on: TRABD2A and TRABD2B proteins; experiment: Killing of target cells by CD8+ T cells under intervention with bispecific anti-TRABD2A/2B antibody; type: cell-based, human; details: FIG. 7C
Source text: The effect of the bispecific antibody blocking both TRABD2A and TRABD2B proteins on target cell killing ability of CD8^+ T cells were examined.

[13] = molecular target: T6, TRABD2B protein (Homo sapiens, UniProt A6NFA1); experiment: Binding of anti-TRABD2A/2B bispecific antibody to antigen TRABD2B protein; details: detection with antigen; FIG. 6C
T6 sequence (A6NFA1 20-486): T3 sequence (A6NFA1 20-486)
Experimental: as §1

**Q.** With c1cnc2c(c1)ccc1cccnc12 [1,10-phenanthroline] as the molecule, how does the “function of TRABD protein” value [1] read?
**A.** inhibited

**Q.** With [Ca+2] [Ca^2+] as the molecule, how does the “activity of the TRABD2A protein” value [2] read?
**A.** independent

**Q.** Which results are given for [Co+2] [Co^2+]?
**A.** tumor killing ability of CD8^+ T cells [3]: enhanced; TRABD protease activity [1]: increase; activity of the TRABD2A protein [2]: inhibited; toxic effect on CD8^+ T cells and target cells [4]: little toxic effect

**Q.** For [Cu+2] [Cu^2+], which TRABD protease activity [1] is on record?
**A.** opposite effect

**Q.** Which “function of TRABD protein” value [1] does the source give for O=C(O)CN(CCN(CC(=O)O)CC(=O)O)CC(=O)O [EDTA] here?
**A.** inhibited

**Q.** With [Fe+3] [Fe^3+] as the molecule, how does the “activity of the TRABD2A protein” value [2] read?
**A.** independent

**Q.** Which “activity of the TRABD2A protein” value [2] does the source give for [Mg+2] [Mg^2+] here?
**A.** independent

**Q.** What does the source list for [Mn+2] [Mn^2+]?
**A.** tumor killing ability of CD8^+ T cells [3]: not enhanced; TRABD protease activity [1]: increase

**Q.** Which “toxic effect on cells” value [5] does the source give for [Ni+2] [Ni^2+] here?
**A.** little toxic effect

**Q.** What about the “tumor killing ability of CD8^+ T cells” value [3] of the same molecule?
**A.** enhanced

**Q.** What about the TRABD protease activity [1] of the same molecule?
**A.** opposite effect

**Q.** What about the “activity of the TRABD2A protein” value [2] of the same molecule?
**A.** inhibited

**Q.** And the “tumor killing ability of CD8^+ T cells” value [6]?
**A.** enhanced

**Q.** What about the “toxic effect on CD8^+ T cells and target cells” value [4] of the same molecule?
**A.** little toxic effect

**Q.** Which EC50 [7] does the source give for “negative control antibody of Example 6-1” here?
**A.** 14.1 µg/mL

B1: anti-TRABD2A-1 (antibody)
heavy: DASTLQRGVPSRFGGSGQMTQSPSSASTLQRGVPSRFGGSGSQSINRASTLQRGVPSRFGGSGGKAPKLVIYAASSLQSGVPSRFSGSGSGTDFTLTISSLQ
light: ASTLQRGVISWVRASTLQRGVPSRFGGSGPIFGTANYAQKFQGRVTITADESTSTAYMELSSLRSEDTAVYYASTLQRGVPSRFGGSGYYWGQGTPVTVSS
**Q.** Which binding to antigen [8] does the source give for B1 here?
**A.** high binding efficiency

**Q.** And the “effect on target cell killing ability of CD8^+ T cells” value [9]?
**A.** enhanced effect

**Q.** And the EC50 [10]?
**A.** 0.306 µg/mL

B2: anti-TRABD2A-2 (antibody)
heavy: APKLLIYAASSLRSGVPSRFSGSTCRASQSINRYLNWYQAPKLLIYAASSLRSGVPSRFSGSYAASSLQSGVPSRFSGSGSGTDFTLTISSLQPEDFATYYCQQGGTKV
light: YYWGQGTPVTVSKKPGSSVKVSAPKLLIYAASSLRSGVPSRFSGSGTFSSYAISWVRQAPGQGLEWMGGIIPIFGTANYAQKFQGRVTITADESTSTAYMELSSLRSEDTA
**Q.** Which binding to antigen [8] does the source give for B2 here?
**A.** high binding efficiency

**Q.** What about the “effect on target cell killing ability of CD8^+ T cells” value [9] of the same molecule?
**A.** enhanced effect

**Q.** What about the EC50 [10] of the same molecule?
**A.** 0.128 µg/mL

B3: anti-TRABD2A/2B bispecific antibody: bispecific antibody recognizing both TRABD2A and TRABD2B; heavy and light chains SEQ ID NOs: 29 and 30 (antibody)
heavy: YQSQSINRYLNWYQQKPGKSNYLNWAPKLVIYAASSLQYCQQYNFYPLTFGYLNWYQSSGTYLNWYQQRPGKAPSSGTYQRPGKAPGGTKVSNYLNWYQSN
light: YAQKFQGRVTITVKVSCKASGGTFSSYAISWVRQAPGQGLEWMGQVQLVQSGAEVKKPGSSGIIPIFGTANADESTSTAYMELSSLRSEDTAVYYCARTRGYS
**Q.** With B3 as the molecule, how does the “binding to TRABD2A” value [11] read?
**A.** capable of binding

**Q.** And the “effect on the killing of target cells by CD8^+ T cells” value [12]?
**A.** enhancing effect

**Q.** And the “binding to TRABD2B” value [13]?
**A.** capable of binding

Source: patent US20230382984A1, “TRABD PROTEIN, AND MONOCLONAL ANTIBODY THEREOF, AND ISOLATION, AMPLIFICATION AND USE THEREOF” (priority 2022, published 2023)
